Experiments:
HCT116 = assay: In vitro cytotoxicity / anti-proliferation assay (CCK8); type: cell-based; conditions: Homo sapiens, HCT-116, colorectal cancer cell line HCT116, 72 h
Method: To determine whether DCLK1 was required for tumour cell proliferation, the cytotoxicity of compounds was evaluated in colorectal cancer cell line HCT116. HCT116 was treated with compounds for 72 h, and the cell viability was determined using CCK8 assay (Figure 4). The antiproliferative effects of most compounds on HCT116 were correlated with their DCLK1 inhibitory activities, except for compounds D1 and D2. The poor cytotoxicity of compounds D1 and D2 may be attributed to their poor cell membrane permeability due to the negatively charged carboxylates. […] Overall, targeting DCLK1 inhibited the proliferation of HCT116, indicating the importance of DCLK1 in tumour growth.
A 96-well plate (3599, Corning, USA) was inoculated with 100 μL of complete medium containing 10 000 cells, and the experimental, control, and blank groups were established. Three parallel wells were used per concentration. After 10 h, media from the experimental and control groups were replaced with a complete medium containing the indicated concentration of the compound. Cells were incubated for 72 h before 10 μL of CCK8 reagent (CA1210, Solarbio, China) was added to each well and incubated for 1 h. The absorbance at 450 nm was measured with a microplate reader (Tecan, Switzerland). The IC50 was determined using GraphPad Prism 8 and nonlinear regression curve fitting.

LRRK2 = target: T1, LRRK2 (Homo sapiens, UniProt Q5S007); assay: In vitro LRRK2 kinase activity assay (Eurofins); type: biochemical; conditions: for activity at 1 µM: remaining kinase activity at 1 uM compound, 100% = no inhibition, 0% = complete inhibition
T1 construct: purchased Eurofins (Belgium), contract assay service
T1 sequence (Q5S007 whole entry): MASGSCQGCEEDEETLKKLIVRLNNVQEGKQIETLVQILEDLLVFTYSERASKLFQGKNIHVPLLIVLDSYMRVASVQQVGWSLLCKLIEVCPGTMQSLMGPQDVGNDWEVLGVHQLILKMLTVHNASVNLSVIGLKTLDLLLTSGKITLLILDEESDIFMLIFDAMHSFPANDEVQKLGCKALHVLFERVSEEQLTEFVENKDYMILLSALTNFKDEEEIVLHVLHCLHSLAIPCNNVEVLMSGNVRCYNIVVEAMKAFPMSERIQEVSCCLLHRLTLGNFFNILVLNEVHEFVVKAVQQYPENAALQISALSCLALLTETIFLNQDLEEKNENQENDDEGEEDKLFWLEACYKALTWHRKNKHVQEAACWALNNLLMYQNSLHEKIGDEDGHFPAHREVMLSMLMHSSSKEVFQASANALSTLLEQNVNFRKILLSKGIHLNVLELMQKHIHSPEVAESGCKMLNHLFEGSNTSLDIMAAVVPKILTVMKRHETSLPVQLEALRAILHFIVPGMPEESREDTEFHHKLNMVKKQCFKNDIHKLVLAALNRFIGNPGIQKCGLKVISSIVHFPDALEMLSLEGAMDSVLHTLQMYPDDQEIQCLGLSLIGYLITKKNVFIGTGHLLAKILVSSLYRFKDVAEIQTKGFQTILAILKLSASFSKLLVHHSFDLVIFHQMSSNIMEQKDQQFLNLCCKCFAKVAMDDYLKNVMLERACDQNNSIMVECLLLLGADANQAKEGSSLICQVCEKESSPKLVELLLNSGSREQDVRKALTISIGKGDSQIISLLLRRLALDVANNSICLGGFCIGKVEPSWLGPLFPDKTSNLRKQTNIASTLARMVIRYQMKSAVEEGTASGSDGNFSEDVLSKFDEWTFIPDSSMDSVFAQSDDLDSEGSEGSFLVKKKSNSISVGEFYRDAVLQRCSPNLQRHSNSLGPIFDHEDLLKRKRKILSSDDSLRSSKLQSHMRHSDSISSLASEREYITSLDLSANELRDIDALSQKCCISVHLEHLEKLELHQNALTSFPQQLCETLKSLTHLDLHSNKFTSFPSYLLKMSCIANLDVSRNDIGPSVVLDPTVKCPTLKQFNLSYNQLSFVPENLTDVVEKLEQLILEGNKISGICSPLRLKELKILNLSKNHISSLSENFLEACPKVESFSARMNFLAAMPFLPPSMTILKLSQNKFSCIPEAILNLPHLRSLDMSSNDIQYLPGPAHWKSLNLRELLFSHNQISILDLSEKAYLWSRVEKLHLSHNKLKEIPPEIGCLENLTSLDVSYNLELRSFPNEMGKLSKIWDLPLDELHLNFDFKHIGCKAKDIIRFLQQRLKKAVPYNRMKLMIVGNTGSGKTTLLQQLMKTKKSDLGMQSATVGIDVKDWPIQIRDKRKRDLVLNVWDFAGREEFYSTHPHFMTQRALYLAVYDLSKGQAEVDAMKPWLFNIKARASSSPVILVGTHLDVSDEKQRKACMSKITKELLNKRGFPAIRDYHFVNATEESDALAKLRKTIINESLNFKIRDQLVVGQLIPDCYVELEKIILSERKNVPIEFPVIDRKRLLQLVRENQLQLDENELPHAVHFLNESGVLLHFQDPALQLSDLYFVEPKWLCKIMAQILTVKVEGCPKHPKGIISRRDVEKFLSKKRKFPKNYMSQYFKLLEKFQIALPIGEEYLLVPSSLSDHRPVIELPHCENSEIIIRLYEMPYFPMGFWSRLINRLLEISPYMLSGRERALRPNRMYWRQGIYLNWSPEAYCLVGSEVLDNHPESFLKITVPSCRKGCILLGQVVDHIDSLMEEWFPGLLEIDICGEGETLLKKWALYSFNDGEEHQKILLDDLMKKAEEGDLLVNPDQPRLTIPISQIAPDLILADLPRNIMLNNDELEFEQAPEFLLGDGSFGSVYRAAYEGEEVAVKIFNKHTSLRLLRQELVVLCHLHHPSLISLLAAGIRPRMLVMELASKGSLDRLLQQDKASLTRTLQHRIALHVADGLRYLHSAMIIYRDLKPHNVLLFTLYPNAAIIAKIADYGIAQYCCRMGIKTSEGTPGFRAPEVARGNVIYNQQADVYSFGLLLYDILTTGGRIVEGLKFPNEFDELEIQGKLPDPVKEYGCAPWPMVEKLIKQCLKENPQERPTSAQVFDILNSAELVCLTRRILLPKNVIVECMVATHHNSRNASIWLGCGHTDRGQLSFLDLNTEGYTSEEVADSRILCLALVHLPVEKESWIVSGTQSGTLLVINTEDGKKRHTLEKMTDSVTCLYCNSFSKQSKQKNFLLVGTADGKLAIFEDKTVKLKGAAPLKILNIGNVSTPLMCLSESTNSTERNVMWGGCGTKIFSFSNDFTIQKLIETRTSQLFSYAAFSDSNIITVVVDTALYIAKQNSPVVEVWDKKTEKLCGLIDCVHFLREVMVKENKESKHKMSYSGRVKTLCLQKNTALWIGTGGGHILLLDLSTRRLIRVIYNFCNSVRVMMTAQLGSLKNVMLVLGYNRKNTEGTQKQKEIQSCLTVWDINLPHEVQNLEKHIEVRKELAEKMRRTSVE
Method: All compounds were tested for their kinase inhibitory activity at the concentration of 1 μM. […] Compounds with high activity or good selectivity were selected for further IC50 determination (Table 2).
(§1) Eurofins (Belgium) conducted in vitro DCLK1 and LRRK2 kinase activity assays. Compounds were sent as dry powders to Eurofins.

DCLK1 = target: T2, DCLK1 (Homo sapiens, UniProt O15075); assay: In vitro DCLK1 kinase activity assay (Eurofins); type: biochemical; conditions: for Selectivity (IC50 of DCLK1/IC50 of LRRK2): ratio of IC50 values; for Selectivity (DCLK1 activity/LRRK2 activity): ratio of remaining activities at 1 uM; for IC50: read-out: IC50 of DCLK1; for activity at 1 µM: remaining kinase activity at 1 uM compound, 100% = no inhibition, 0% = complete inhibition, read-out: DCLK1 activity (%)
T2 construct: purchased Eurofins (Belgium), contract assay service
T2 sequence (O15075 1-740): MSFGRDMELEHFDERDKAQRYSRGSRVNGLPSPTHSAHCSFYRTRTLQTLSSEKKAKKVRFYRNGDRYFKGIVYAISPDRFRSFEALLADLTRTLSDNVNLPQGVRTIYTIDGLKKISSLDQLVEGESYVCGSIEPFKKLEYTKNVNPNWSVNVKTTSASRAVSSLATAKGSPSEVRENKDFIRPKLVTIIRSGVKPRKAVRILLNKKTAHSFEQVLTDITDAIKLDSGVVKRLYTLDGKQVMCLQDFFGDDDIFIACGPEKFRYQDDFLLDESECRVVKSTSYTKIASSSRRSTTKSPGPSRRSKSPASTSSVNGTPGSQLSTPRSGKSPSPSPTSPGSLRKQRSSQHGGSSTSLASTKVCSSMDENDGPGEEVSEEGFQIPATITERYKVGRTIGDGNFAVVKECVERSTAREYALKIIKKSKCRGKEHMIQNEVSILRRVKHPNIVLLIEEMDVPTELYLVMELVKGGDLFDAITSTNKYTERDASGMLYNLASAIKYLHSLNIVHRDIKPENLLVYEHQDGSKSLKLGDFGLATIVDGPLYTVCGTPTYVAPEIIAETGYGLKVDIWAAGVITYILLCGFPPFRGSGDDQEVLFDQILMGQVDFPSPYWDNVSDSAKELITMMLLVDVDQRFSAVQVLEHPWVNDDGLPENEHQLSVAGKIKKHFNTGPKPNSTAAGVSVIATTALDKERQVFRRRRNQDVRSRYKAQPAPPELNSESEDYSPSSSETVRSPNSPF
Text: as §1

Structure (SMILES) | melting point [°C] | IC50 (HCT116) [µM] | IC50 (LRRK2) [µM] | activity at 1 µM (LRRK2) [%] | Selectivity (IC50 of DCLK1/IC50 of LRRK2) (DCLK1) | Selectivity (DCLK1 activity/LRRK2 activity) (DCLK1) | IC50 (DCLK1) [µM] | activity at 1 µM (DCLK1) [%]
COc1cc(NC(=O)CC(=O)O)ccc1Nc1ncc2c(n1)N(C)c1ccccc1C(=O)N2C [Compound D1, 3-((4-((5,11-Dimethyl-6-oxo-6,11-dihydro-5H-benzo[e]pyrimido[5,4-b][1,4]diazepin-2-yl)amino)-3-methoxyphenyl)amino)-3-oxopropanoic acid] | 187 to 188 | > 100 | > 1 | 56 | <0.05 | 0.13 | 0.047 | 7
CCOc1cc(N2CCSCC2)ccc1Nc1ncc2c(n1)N(C)c1ccccc1C(=O)N2C [Compound D4, 2-((2-Ethoxy-4-thiomorpholinophenyl)amino)-5,11-dimethyl-5,11-dihydro-6H-benzo[e]pyrimido[5,4-b][1,4]diazepin-6-one] | 190 to 191 | 28.8 | 0.425 | 33 | 0.64 | 0.55 | 0.271 | 18

Reference: article PMC11792831, “Design and synthesis of doublecortin-like kinase 1 inhibitors and their bioactivity evaluation” (Journal of Enzyme Inhibition and Medicinal Chemistry, 2023)
